# Measured values reported in patent US12145913B2, “Inhibition of Olig2 activity” (Curtana Pharmaceuticals, Inc., priority 2016, dated 2024).
# Test system: GBM8 human glioblastoma cells
# Assay: GBM8 viability assay (Cell Titer Glo)
# Type: cell-based
# Conditions: 72 h, Table 1, 3 days incubation, luminescence
# Procedure: Cell culture medium was prepared from a NSA proliferation kit (Neurocult) and NeuroCult supplements (Stemcell Tech Cat. #05751) and treated with 20 μL of 10 μg/mL rh EGF, 10 μL of 10 μg/mL rh bFGF and 10 μL of 0.2% Heparin. In this medium, human glioblastoma cells were cultured in ultra-low attachment tissue culture flasks until 1×10^6 cells ml was achieved (GBM4 and GBM8 are distinct neurosphere cell cultures derived from these human patient tissues). GBM4 and GBM8 cells were dissociated and 10 mL of media containing 4000 human glioblastoma cells per 90 μL were transferred to an ultra-low binding 96-well plate and incubated at 37° C. overnight. On the following day, 10 μL of a 1% DMSO solution of test compound in assay medium was added to wells containing the cell suspension and the mixture incubated at 37° C. for 3 days. At this time, the plate was removed from the incubator and allowed to reach room temperature. After about 30 minutes, 50 μL of Cell Titer Glo solution was added to each well and the plate shaken for 1 minute at low speed. After 10 minutes luminescence was recorded using a Tecan Safire2 reader.
# Reduction in luminescence compared to DMSO only control wells was used to determine the percentage inhibition of cell growth. IC50s were calculated using the % inhibition of luminescence for serial dilutions of compounds fitted to a 4-parameter fit within the Prism (San Diego) curve fitting program. Tables 1 (compounds 3-188) and 2 (compounds 190-212) show the GBM4 IC50 and GBM8 IC50 for compounds described herein.
row,Structure (SMILES),IC50
1,"Cc1cc(NCCNC(=O)C(F)(F)F)nc(NC(=O)Nc2ccc3ccccc3c2)n1 [Compound 38, 2,2,2-trifluoro-N-(2-((6-methyl-2-(3-(naphthalen-2-yl)ureido)pyrimidin-4-yl)amino)ethyl)acetamide]",500 to 5000 nM
2,"Cc1cc(NO)nc(NC(=O)Nc2ccc3ccccc3c2)n1 [Compound 45, 1-(4-(hydroxyamino)-6-methylpyrimidin-2-yl)-3-(naphthalen-2-yl)urea]",< 500 nM
3,"Cc1cc(NCCN)nc(NC(=O)Nc2ccc(OC(F)(F)F)c(Cl)c2)n1 [Compound 150, 1-(4-((2-aminoethyl)amino)-6-methylpyrimidin-2-yl)-3-(3-chloro-4-(trifluoromethoxy)phenyl)urea]",< 500 nM
4,"Cc1cc(NCCN(C)C)nc(NC(=O)Nc2ccc3occc3c2)n1 [Compound 81, 1-(benzofuran-5-yl)-3-(4-((2-(dimethylamino)ethyl)amino)-6-methylpyrimidin-2-yl)urea]",< 500 nM
5,"CC(=O)NCCCNc1cc(C)nc(NC(=O)Nc2ccc(OC(C)C)cc2)n1 [Compound 142, N-(3-((2-(3-(4-isopropoxyphenyl)ureido)-6-methylpyrimidin-4-yl)amino)propyl)acetamide]",< 500 nM
6,Cc1cc(NCC2CCCN(C)C2)nc(NC(=O)Nc2ccc3ccccc3c2)n1 (stereo not shown) [Compound 11],500 to 5000 nM
7,"Cc1cc(NCCCN(C)C)nc(NC(=O)Nc2ccc(OC(C)C)cc2)n1 [Compound 136, 1-(4-((3-(dimethylamino)propyl)amino)-6-methylpyrimidin-2-yl)-3-(4-isopropoxyphenyl)urea]",< 500 nM
8,"Cc1cc(NCC(F)(F)CO)nc(NC(=O)Nc2ccc3ccccc3c2)n1 [Compound 27, 1-(4-((2,2-difluoro-3-hydroxypropyl)amino)-6-methylpyrimidin-2-yl)-3-(naphthalen-2-yl)urea]",< 500 nM
9,"Cc1cc(NCCNS(C)(=O)=O)nc(NC(=O)Nc2ccc(OC(C)C)cc2)n1 [Compound 139, N-(2-((2-(3-(4-isopropoxyphenyl)ureido)-6-methylpyrimidin-4-yl)amino)ethyl)methanesulfonamide]",< 500 nM
10,Cc1cc(NCCOCCO)nc(NC(=O)Nc2ccc3ccccc3c2)n1 [Compound 13],< 500 nM
11,"Cc1cc(NO)nc(NC(=O)Nc2ccc(OC(F)(F)F)cc2)n1 [Compound 147, 1-(4-(hydroxyamino)-6-methylpyrimidin-2-yl)-3-(4-(trifluoromethoxy)phenyl)urea]",< 500 nM
12,"CC(=O)NCCCNc1cc(C)nc(NC(=O)Nc2cc3ccccc3cn2)n1 [Compound 92, N-(3-((2-(3-(isoquinolin-3-yl)ureido)-6-methylpyrimidin-4-yl)amino)propyl)acetamide]",500 to 5000 nM
13,Cc1cc(N(C)C)nc(NC(=O)Nc2ccc3ccccc3c2)n1 [Compound 21],500 to 5000 nM
14,"Cc1cc(NCCNS(C)(=O)=O)nc(NC(=O)Nc2ccc(OC(F)(F)F)c(Cl)c2)n1 [Compound 151, N-(2-((2-(3-(3-chloro-4-(trifluoromethoxy)phenyl)ureido)-6-methylpyrimidin-4-yl)amino)ethyl)methanesulfonamide]",< 500 nM
15,"Cc1cc(NCCCN)nc(NC(=O)Nc2cc3ccccc3cn2)n1 [Compound 91, 1-(4-((3-aminopropyl)amino)-6-methylpyrimidin-2-yl)-3-(isoquinolin-3-yl)urea]",500 to 5000 nM
16,"CC(C)c1cc(NO)nc(NC(=O)Nc2ccc(Cl)c(Cl)c2)n1 [Compound 185, 1-(3,4-dichlorophenyl)-3-(4-(hydroxyamino)-6-isopropyl-pyrimidin-2-yl)urea]",500 to 5000 nM
17,"Cc1cc(NCCNS(C)(=O)=O)nc(NC(=O)Nc2ccc3ncccc3c2)n1 [Compound 111, N-(2-((6-methyl-2-(3-(quinolin-6-yl)ureido)pyrimidin-4-yl)amino)ethyl)methanesulfonamide]",< 500 nM
18,"O=C(Nc1ccc(Cl)c(Cl)c1)Nc1nccc(NO)n1 [Compound 158, 1-(3,4-dichlorophenyl)-3-(4-(hydroxyamino)pyrimidin-2-yl)urea]",500 to 5000 nM
19,"Cc1cc(NCCNS(C)(=O)=O)nc(NC(=O)Nc2ccc3ccccc3n2)n1 [Compound 102, N-(2-((6-methyl-2-(3-(quinolin-2-yl)ureido)pyrimidin-4-yl)amino)ethyl)methanesulfonamide]",500 to 5000 nM

# Continued, values first:
row,IC50,Structure (SMILES)
1,< 500 nM,"CNCCNc1cc(C)nc(NC(=O)Nc2ccc3ccccc3c2)n1 [Compound 30, 1-(4-methyl-6-((2-(methylamino)ethyl)amino)pyrimidin-2-yl)-3-(naphthalen-2-yl)urea]"
2,< 500 nM,"Cc1cc(NCCCc2ncc[nH]2)nc(NC(=O)Nc2ccc3ccccc3c2)n1 [Compound 23, 1-(4-((3-(1H-imidazol-2-yl)propyl)amino)-6-methylpyrimidin-2-yl)-3-(naphthalen-2-yl)urea]"
3,< 500 nM,"CNCCCCNc1cc(C)nc(NC(=O)Nc2ccc3cnccc3c2)n1 [Compound 65, 1-(isoquinolin-6-yl)-3-(4-methyl-6-((4-(methylamino)butyl)amino)pyrimidin-2-yl)urea]"
4,< 500 nM,Cc1cc(NCCCCN)nc(NC(=O)Nc2ccc3ccccc3c2)n1 [Compound 10]
5,< 500 nM,"Cc1cc(NCCCN)nc(NC(=O)Nc2ccc3occc3c2)n1 [Compound 83, 1-(4-((3-aminopropyl)amino)-6-methylpyrimidin-2-yl)-3-(benzofuran-5-yl)urea]"
6,< 500 nM,"Cc1cc(NCCNS(C)(=O)=O)nc(NC(=O)Nc2ccc3ccncc3c2)n1 [Compound 120, N-(2-((2-(3-(isoquinolin-7-yl)ureido)-6-methylpyrimidin-4-yl)amino)ethyl)methanesulfonamide]"
7,< 500 nM,"CONc1cc(C)nc(NC(=O)Nc2ccc3cnccc3c2)n1 [Compound 61, 1-(isoquinolin-6-yl)-3-(4-(methoxyamino)-6-methylpyrimidin-2-yl)urea]"
8,< 500 nM,"Cc1cc(NCCNS(C)(=O)=O)nc(NC(=O)Nc2ccc3cnccc3c2)n1 [Compound 75, N-(2-((2-(3-(isoquinolin-6-yl)ureido)-6-methylpyrimidin-4-yl)amino)ethyl)methanesulfonamide]"
9,< 500 nM,"CNC(=O)CCNc1cc(C)nc(NC(=O)Nc2ccc3ccccc3c2)n1 [Compound 43, N-methyl-3-((6-methyl-2-(3-(naphthalen-2-yl)ureido)pyrimidin-4-yl)amino)propanamide]"
10,500 to 5000 nM,"Cc1cc(NCCN)nc(NC(=O)Nc2ccc3ccncc3c2)n1 [Compound 116, 1-(4-((2-aminoethyl)amino)-6-methylpyrimidin-2-yl)-3-(isoquinolin-7-yl)urea]"
11,< 500 nM,"CNCCCCNc1cc(C)nc(NC(=O)Nc2ccc3ccccc3c2)n1 [Compound 33, 1-(4-methyl-6-((4-(methylamino)butyl)amino)pyrimidin-2-yl)-3-(naphthalen-2-yl)urea]"
12,< 500 nM,COCCNc1cc(C)nc(NC(=O)Nc2ccc3cnccc3c2)n1 [Compound 57]
13,< 500 nM,CCCNc1cc(C)nc(NC(=O)Nc2ccc3ccccc3c2)n1 [Compound 12]

# Same assay, conditions: 72 h, Table 2, 3 days incubation, luminescence
row,IC50,Structure (SMILES)
1,500 to 5000 nM,"CC(C)c1cc(N)nc(NC(=O)Nc2ccc(OC(F)(F)F)cc2)n1 [Compound 196, 1-(4-amino-6-isopropylpyrimidin-2-yl)-3-(4-(trifluoro-methoxy)phenyl)urea]"
2,500 to 5000 nM,"CN(C)CCCNc1cc(C2CC2)nc(NC(=O)Nc2ccc(OC(F)(F)F)cc2)n1 [Compound 209, 1-(4-cyclopropyl-6-((3-(dimethylamino)propyl)amino)-pyrimidin-2-yl)-3-(4-(trifluoromethoxy)phenyl)urea]"
